Test results taken from ChEMBL document CHEMBL4265897, “Discovery of benzothiazole amides as potent antimycobacterial agents” (Bioorg Med Chem Lett, 2018).
Converted amounts (≈) assume the structure as drawn.

Tests used:
Mycobacterium avium = experiment: Antimycobacterial activity against Mycobacterium avium 101 by CLSI method; format: functional
[1] = test system: Mycobacterium intracellulare; experiment: Antimycobacterial activity against Mycobacterium intracellulare 1956 by CLSI method; format: functional
[2] = test system: Mycobacterium tuberculosis; experiment: Antimycobacterial activity against Mycobacterium tuberculosis H37Rv MC2 6206 by CLSI method; format: functional
[3] = test system: Mycobacteroides abscessus; experiment: Antimycobacterial activity against Mycobacterium abscessus 1 by CLSI method; format: functional
[4] = test system: Mycobacteroides abscessus; experiment: Antimycobacterial activity against Mycobacterium abscessus 21 by CLSI method; format: functional
[5] = test system: Mycobacteroides abscessus; experiment: Antimycobacterial activity against Mycobacterium abscessus 79 by CLSI method; format: functional
[6] = test system: Mycobacteroides abscessus; experiment: Antimycobacterial activity against Mycobacterium massiliense 119 by CLSI method; format: functional, Mycobacterium abscessus subsp. massiliense
Mycobacteroides chelonae = experiment: Antimycobacterial activity against Mycobacterium chelonae 93 by CLSI method; format: functional
[7] = test system: Mycolicibacterium fortuitum; experiment: Antimycobacterial activity against Mycobacterium fortuitum 41 by CLSI method; format: functional
[8] = test system: Mycolicibacterium peregrinum; experiment: Antimycobacterial activity against Mycobacterium peregrinum ATCC 700686 by CLSI method; format: functional
[9] = test system: Mycobacteroides abscessus; experiment: Antimycobacterial activity against Mycobacterium abscessus 103 by CLSI method; format: functional
[10] = test system: Mycobacteroides abscessus; experiment: Antimycobacterial activity against Mycobacterium abscessus ATCC 19977 by CLSI method; format: functional

SMILES	MIC (Mycobacterium avium) [mg/L]	MIC [1] [mg/L]	MIC [2] [mg/L]	MIC [3] [mg/L]	MIC [4] [mg/L]	MIC [5] [mg/L]	MIC [6] [mg/L]	MIC (Mycobacteroides chelonae) [mg/L]	MIC [7] [mg/L]	MIC [8] [mg/L]	MIC [9] [mg/L]	MIC [10] [mg/L]
CC1CCCC(C(=O)Nc2nc3ccc(C(F)(F)F)cc3s2)C1 (configuration not stated)	16 (≈ 46.7 µM)	16 (≈ 46.7 µM)	16 (≈ 46.7 µM)	4 (≈ 11.7 µM)	2 (≈ 5.84 µM)	2 (≈ 5.84 µM)	2 (≈ 5.84 µM)	1 (≈ 2.92 µM)	2 (≈ 5.84 µM)	1 (≈ 2.92 µM)		
CC12CCCC(C(=O)Nc3nc4c(F)cc(F)cc4s3)(CCC1)C2	4 (≈ 11.4 µM)	4 (≈ 11.4 µM)			0.12 (≈ 0.342 µM)	0.12 (≈ 0.342 µM)	0.12 (≈ 0.342 µM)	0.12 (≈ 0.342 µM)	0.25 (≈ 0.713 µM)	0.06 (≈ 0.171 µM)	0.25 (≈ 0.713 µM)	
O=C(Nc1nc2ccc(C(F)(F)F)cc2s1)C1CCCC(C(F)(F)F)C1 (configuration not stated)	16 (≈ 40.4 µM)	16 (≈ 40.4 µM)		2 (≈ 5.05 µM)	1 (≈ 2.52 µM)	2 (≈ 5.05 µM)	1 (≈ 2.52 µM)	0.5 (≈ 1.26 µM)	2 (≈ 5.05 µM)	1 (≈ 2.52 µM)		
CC1CC(C(=O)Nc2nc3cc(F)cc(F)c3s2)CC(C)(C)C1 (configuration not stated)	8 (≈ 23.6 µM)	8 (≈ 23.6 µM)		0.5 (≈ 1.48 µM)	0.25 (≈ 0.739 µM)	0.25 (≈ 0.739 µM)	0.25 (≈ 0.739 µM)	0.25 (≈ 0.739 µM)	0.25 (≈ 0.739 µM)	0.12 (≈ 0.355 µM)	0.25 (≈ 0.739 µM)	
CC12CCCC(C(=O)Nc3nc4ccc(Cl)cc4s3)(CCC1)C2	8 (≈ 22.9 µM)	4 (≈ 11.5 µM)	0.5 (≈ 1.43 µM)	0.25 (≈ 0.717 µM)	0.12 (≈ 0.344 µM)	0.12 (≈ 0.344 µM)	0.12 (≈ 0.344 µM)	0.25 (≈ 0.717 µM)	0.25 (≈ 0.717 µM)	0.12 (≈ 0.344 µM)	0.12 (≈ 0.344 µM)	
CC12CCCC(C(=O)Nc3nc4ccc(C(F)(F)F)cc4s3)(CCC1)C2	> 8	4 (≈ 10.5 µM)		0.5 (≈ 1.31 µM)	0.25 (≈ 0.654 µM)	0.25 (≈ 0.654 µM)	0.25 (≈ 0.654 µM)	0.5 (≈ 1.31 µM)	0.5 (≈ 1.31 µM)	0.12 (≈ 0.314 µM)	0.12 (≈ 0.314 µM)	
CC1(C(=O)Nc2nc3ccc(OC(F)(F)F)cc3s2)CCCCCC1	8 (≈ 21.5 µM)	4 (≈ 10.7 µM)		0.25 (≈ 0.671 µM)	0.12 (≈ 0.322 µM)	0.12 (≈ 0.322 µM)	0.12 (≈ 0.322 µM)	0.25 (≈ 0.671 µM)	2 (≈ 5.37 µM)	0.5 (≈ 1.34 µM)	0.25 (≈ 0.671 µM)	
CC1(C)CCC(C(=O)Nc2nc3ccc(C(F)(F)F)cc3s2)CC1	64 (≈ 180 µM)	64 (≈ 180 µM)										> 64
CC1CC(C(=O)Nc2nc3cc(C(F)(F)F)ccc3s2)CC(C)(C)C1 (configuration not stated)	> 64	> 64	≤ 0.12		0.25 (≈ 0.675 µM)	0.25 (≈ 0.675 µM)	0.5 (≈ 1.35 µM)	0.25 (≈ 0.675 µM)	0.25 (≈ 0.675 µM)	0.12 (≈ 0.324 µM)	0.5 (≈ 1.35 µM)	
CC1CC(C(=O)Nc2nc3c(F)cccc3s2)CC(C)(C)C1 (configuration not stated)	8 (≈ 25 µM)	8 (≈ 25 µM)	4 (≈ 12.5 µM)	2 (≈ 6.24 µM)	1 (≈ 3.12 µM)	2 (≈ 6.24 µM)	1 (≈ 3.12 µM)	2 (≈ 6.24 µM)	0.5 (≈ 1.56 µM)	2 (≈ 6.24 µM)		
CC1CC(C(=O)Nc2nc3ccccc3s2)CC(C)(C)C1 (configuration not stated)	8 (≈ 26.5 µM)	8 (≈ 26.5 µM)	8 (≈ 26.5 µM)	2 (≈ 6.61 µM)	2 (≈ 6.61 µM)	1 (≈ 3.31 µM)	2 (≈ 6.61 µM)	1 (≈ 3.31 µM)	1 (≈ 3.31 µM)	0.5 (≈ 1.65 µM)	1 (≈ 3.31 µM)	
Cc1cc(C)c2sc(NC(=O)C34CCCC(C)(CCC3)C4)nc2c1	8 (≈ 23.4 µM)	8 (≈ 23.4 µM)		0.25 (≈ 0.73 µM)	0.12 (≈ 0.35 µM)	0.12 (≈ 0.35 µM)	0.12 (≈ 0.35 µM)	0.12 (≈ 0.35 µM)	1 (≈ 2.92 µM)	0.25 (≈ 0.73 µM)	0.25 (≈ 0.73 µM)	
CC1CC(C(=O)Nc2nc3cccc(O)c3s2)CC(C)(C)C1 (configuration not stated)		4 (≈ 12.6 µM)			16 (≈ 50.2 µM)	8 (≈ 25.1 µM)	2 (≈ 6.28 µM)	1 (≈ 3.14 µM)	2 (≈ 6.28 µM)	0.12 (≈ 0.377 µM)	2 (≈ 6.28 µM)	
CC12CCCC(C(=O)Nc3nc4ccc(OC(F)F)cc4s3)(CCC1)C2	8 (≈ 21 µM)	4 (≈ 10.5 µM)		0.25 (≈ 0.657 µM)	0.12 (≈ 0.315 µM)	0.12 (≈ 0.315 µM)	0.12 (≈ 0.315 µM)	0.25 (≈ 0.657 µM)	1 (≈ 2.63 µM)	0.12 (≈ 0.315 µM)		
CC1CC(C(=O)Nc2nc3c(F)c(F)c(F)cc3s2)CC(C)(C)C1 (configuration not stated)	> 64	> 64	1 (≈ 2.81 µM)	0.5 (≈ 1.4 µM)	0.5 (≈ 1.4 µM)	0.25 (≈ 0.701 µM)	0.5 (≈ 1.4 µM)	0.25 (≈ 0.701 µM)	0.25 (≈ 0.701 µM)	0.12 (≈ 0.337 µM)	0.5 (≈ 1.4 µM)	
O=C(Nc1nc2ccc(OC(F)(F)F)cc2s1)C1CCCCCC1	> 64	> 64	64 (≈ 179 µM)	> 64	> 64	> 64	> 64	32 (≈ 89.3 µM)	> 64	> 64	> 64	
CC1(C(=O)Nc2nc3ccc(OC(F)(F)F)cc3s2)CCCCC1	8 (≈ 22.3 µM)	4 (≈ 11.2 µM)	4 (≈ 11.2 µM)		0.12 (≈ 0.335 µM)	0.12 (≈ 0.335 µM)	0.12 (≈ 0.335 µM)	0.25 (≈ 0.698 µM)	2 (≈ 5.58 µM)	0.5 (≈ 1.4 µM)	0.12 (≈ 0.335 µM)	
